{"source": "patent US4528378A", "about": "“Substituted 3,4-diamino-1,2,5-thiadiazoles having histamine H2 -receptor antagonist activity” (Bristol-Myers Company, priority 1984, dated 1985)", "origin": "cited, not measured here", "tested_on": "peptic ulcer disease", "conditions": "Gray et al., Lancet, 1, 8001 (1977)"}
{"smiles": "CN/C(=N/CCSCc1nc[nH]c1C)NC#N", "note": "[cimetidine]", "values": [{"measurement": "clinical efficacy in treatment of peptic ulcer disease", "result": "effective therapeutic agent in the treatment of peptic ulcer disease"}]}
